# According to publication PMC10828251, “A novel PSMA-targeting tracer with highly negatively charged linker demonstrates decreased salivary gland uptake in mice compared to [^68Ga]Ga-PSMA-11” (EJNMMI Radiopharmacy and Chemistry, 2024):
# Values joined by “and” are separate entries in the source; they are usually repeats but may differ in a detail not shown here. Equal entries are not always repeated. Where two headings read alike, the source gives them in different places. Numbered stars: 1 amine (or outer) side, 2 acyl side, 3 side chain; on linkers, the order of the positions; unused ones are H or OH. Peptide text beside a SMILES is read from it. * marks the point of attachment. X1 = O=C(O)CN1CCN(CC(=O)O)CC(Cc2ccc(NC(=S)*)cc2)N(CC(=O)O)CC1; DOTA = O=C(O)CN1CCN(CC(=O)O)CCN(CC(=O)*)CCN(CC(=O)O)CC1; γGlu = O=C(O)[CH](CCC(=O)[*:2])N[*:1]; CO = O=C([*:1])[*:2]; Ahx = NCCCCCC(=O)O
# Assays:
# [1] = test system: PSMA-expressing metastatic prostate cancer; parameters: method as in Sartor et al. [2021]; settings: 7.4 GBq (200 mCi) regimen; ref Sartor et al. [2021]; cited from earlier work
# GCP-II = biological target: T1, GCP-II (Homo sapiens, UniProt Q04609); experiment: fluorescent enzymatic inhibition assay (competitive binding assay; NAAG hydrolysis by PC3-PIP membranes, Amplex Red glutamic acid readout); assay type: biochemical; settings: upper limit set from the EC50; read-out: upper limit of Ki to PSMA
# T1 construct: expressed in transfected cells; host or cells: PC3-PIP cells: washed membrane preparation after freeze-thaw cycles, 10 µg per well
# T1 sequence (Q04609 whole entry): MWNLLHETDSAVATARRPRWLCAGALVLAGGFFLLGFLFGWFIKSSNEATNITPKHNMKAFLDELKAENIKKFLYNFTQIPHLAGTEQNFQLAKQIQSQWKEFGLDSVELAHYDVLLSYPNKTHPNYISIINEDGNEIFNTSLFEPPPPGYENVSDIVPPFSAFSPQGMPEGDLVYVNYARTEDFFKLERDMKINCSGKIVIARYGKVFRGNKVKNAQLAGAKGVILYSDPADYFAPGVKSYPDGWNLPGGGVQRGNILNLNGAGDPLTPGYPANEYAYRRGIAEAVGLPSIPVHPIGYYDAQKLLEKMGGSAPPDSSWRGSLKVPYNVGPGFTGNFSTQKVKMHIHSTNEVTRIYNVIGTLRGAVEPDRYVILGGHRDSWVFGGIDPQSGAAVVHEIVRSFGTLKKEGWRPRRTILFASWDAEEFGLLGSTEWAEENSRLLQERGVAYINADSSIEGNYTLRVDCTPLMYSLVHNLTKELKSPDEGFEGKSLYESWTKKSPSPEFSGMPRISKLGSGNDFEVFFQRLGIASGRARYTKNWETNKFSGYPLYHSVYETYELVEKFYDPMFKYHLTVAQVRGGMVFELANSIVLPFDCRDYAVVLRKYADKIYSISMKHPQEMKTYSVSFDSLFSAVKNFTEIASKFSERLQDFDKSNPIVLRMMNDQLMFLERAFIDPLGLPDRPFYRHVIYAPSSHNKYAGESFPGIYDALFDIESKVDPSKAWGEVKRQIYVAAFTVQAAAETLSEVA
# Description: Binding affinity of JB-1498 toward GCP-II was determined using fluorescent enzymatic inhibition assay (Kozikowski et al. [2004]) as detailed in the Additional file 1.
# PC3-PIP PSMA expressing cells were grown to confluency, harvested in 50mM Tris-HCl, pH 7.5 and subjected to 4 freezing and thawing cycles. Cell membranes were washed three times by centrifugation at 12,000g or higher. The cell membrane mixture was diluted to a concentration of 50 mg/mL in 50mM Tris-HCl, pH 7.5 (based on wet weight of the solid after centrifugation) and stored in a -80°C freezer until ready to use.
# The assays were conducted on 96-well plates. […] Then the glutamic acid concentration was measured with Amplex Red glutamic acid assay kit (Invitrogen-Molecular Probes, now part of Thermo Fisher Scientific, Waltham, MA)) using a fluorescent plate reader (excitation at 530nm, measuring emission at 590nm). The fluorescence signals at 590nm were then normalized and normalized fluorescence was plotted against the Log concentration of JB1498 ligand (Figure 1). EC50 was determined using the equation: Fluorescence = baseline + (max fluorescence – baseline) […]. Microsoft Excel and KaleidaGraph (Synergy Software, Reading, PA) were used for data processing and graphing.
# [2] = assessment of stability (radiolysis) by radio-HPLC; assay type: physicochemical; settings: for degradation on radio-HPLC after Ga-68 labeling without radioprotectant: aqueous sodium acetate buffer
# Description: The compound in Figure 7 was not further developed as a potential theranostic agent since the need for a radioprotectant with Ga-68 labeling indicated potentially significant instability with high dose beta and alpha emitters.
# Figure 8. Radio-HPLC trace of the compound in Figure 7 seventy minutes after labeling with Ga-68. The labeling reaction consisted of 2 μL of the compound (0.5mg/mL), 40 μL of NaOAc Buffer B, 5 μL ascorbic acid (100mg/mL) and 0.2mL of Eckert & Ziegler GalliaPharm Generator eluate. Buffer B composition is stated above. The HPLC gradient used was 5%-95%B in 15 minutes where solvent B is acetonitrile and solvent A is water with 0.1% formic acid. Column: Phenomenex Synergi Hydro-RP 80A 150x4.6mm 4 micrometer column (Phenomenex, Torrance, CA).
# Figure 10. Radio-HPLC trace of [^68Ga]Ga-JB-1498 immediately after radiolabeling. The small signal at the solvent front is a very small amount of [^68Ga]GaCl3. The labeling reaction contained 2 μL of JB1498 (0.5mg/mL), 40 μL of NaOAc Buffer B and 0.2mL of Eckert & Ziegler GalliaPharm Generator eluate. Buffer B composition is stated above. The HPLC gradient used was 5%-95%B in 15 minutes where solvent B is acetonitrile and solvent A is water with 0.1% formic acid. Column: Waters (Milford, MA) Symmetry C18, 5μm, 4.6 x 150 mm column.
# [3] = micro-PET imaging in non-tumor-bearing NSG mice; assay type: in vivo; settings: for course of activity in salivary glands and kidneys, dynamic micro-PET: during the first hour
# Description: For the micro-PET imaging study, high molar activity [^68Ga]Ga-JB-1498 and [^68Ga]Ga-PSMA-11 were administered to non-tumor bearing NSG mice via tail vein injection. The dose injected was 5.3MBq of [^68Ga]Ga-PSMA-11 and 4.4 MBq of [^68Ga]Ga-JB-1498. Imaging was performed on a nanoScan PET/CT instrument (Mediso USA, Arlington, Virginia). List mode PET acquisition was performed for 45 min starting 25 min post-injection. CT was performed for PET attenuation correction and anatomic localization.
# LNCaP cell line = test system: LNCaP cell line; parameters: method as in Rousseau et al. [2018]; settings: NSG mice, one hour after injection, ref Rousseau et al. [2018], cited from earlier work
# [4] = high molar activity biodistribution study in non-tumor-bearing NSG mice; assay type: in vivo; settings: 1 hour after injection, high specific activity 59 GBq/μmol
# Description: For the high molar activity biodistribution and imaging study, a fresh 1.85 GBq (50mCi) GalliaPharm Gallium-68 generator from Eckert & Ziegler (Berlin, Germany) was used. Radiolabeling of JB-1498 with [^68Ga]GaCl3 was performed in aqueous sodium acetate buffer at pH 4–5 and 98 °C for 10 min. The reaction product was diluted with water, loaded onto an Oasis HLB cartridge, washed with water, and eluted with 2:1 PBS:EtOH as detailed in the Additional file 1. The fractions with highest radioactivity were diluted with saline for injection in mice. Please refer to Additional file 1: Figs. 4 and Fig. 5 for HPLC traces of the products prior to and after solid phase extraction. The molar activity of the purified product was estimated to be 59 GBq/μmol (1600 Ci/mmol) at the time of first injection. [^68Ga]Ga-PSMA-11 was produced concurrently by incubating [^68Ga]GaCl3 and PSMA-11 precursor in sodium acetate buffer at pH 4–5 at room temperature for 10 min. Please refer to Additional file 1: Fig. 6 for HPLC trace of the product. The molar activity of the product was estimated to be 48 GBq/μmol (1300 Ci/mmol) at the time of first injection.
# For the high molar activity biodistribution study aimed at maximizing salivary gland uptake, 3 male NSG mice without tumor were injected with 100μL of the [^68Ga]Ga-JB-1498 solution under anesthesia via retro-orbital injection per the above-described protocol. The dose injected was 1.31 ± 0.26 MBq.
# [5] = test system: PC3-PIP PSMA-expressing cell line; experiment: initial biodistribution study, low molar activity, PC3-PIP tumor-bearing NSG mice; assay type: in vivo; settings: 1 hour after injection, specific activity below 7.4 GBq/μmol; for Biodistribution, Tumor: PC3-PIP PSMA+ tumor, NSG mice
# Description: Radiolabeling of JB-1498 for the initial biodistribution study was performed using [^68Ga]GaCl3 from a spent ^68Ge/^68Ga generator from Isotopen Technologies Garching (Garching, Germany, currently ITM). JB-1498 with [^68Ga]GaCl3 was heated in aqueous sodium acetate buffer at pH 4–5 and 97 C for 7 min. The reaction product was HPLC-purified for the biodistribution study as detailed in the Additional file 1. The molar activity of the purified product was less than 7.4 GBq/μmol (200 Ci/mmol) at the conclusion of synthesis.
# For the initial biodistribution study in tumor bearing mice, 3 male 10 week-old NSG mice (NOD.Cg-Prkdc^scidIl2rg^tm1Wjl/SzJ) were inoculated subcutaneously with 4 million cells of PC3-PIP PSMA-expressing cell line. Mice were housed in a specific pathogen free, temperature- and humidity-controlled environment, in standard micro-isolator top cages with ad libitum access to chow. Biodistribution studies were conducted when the long axis of the tumor exceeded 1 cm. Each mouse was injected with 100 μL of the [^68Ga]Ga-JB-1498 solution under isoflurane anesthesia via retro-orbital injection in the right eye and euthanized 1 h after injection. Major organs (including the left salivary glands) were dissected for radioactivity quantification. The dose injected was 0.74 ± 0.27 MBq.
# [6] = LNCaP tumor model, listed as [^68Ga]Ga-PSMA 11
# [7] = N=3, listed as [^68Ga]Ga-JB1498
compound,measurement,setting,value
[^177Lu]Lu-PSMA-617,complete response,[1],9%
same,partial response,[1],42%
NC(=O)C(CCCCNC(=O)CN1CCN(CC(=O)O)CCN(CC(=O)O)CCN(CC(=O)O)CC1)NC(=O)C(Cc1ccc(O)cc1)NC(=O)C(CCC(=O)O)NC(=O)C(CCC(=O)O)NC(=O)C(CCC(=O)O)NC(=O)CCCCCNC(=O)CCC(NC(=O)NC(CCC(=O)O)C(=O)O)C(=O)O (centres unmarked) [JB-1498] ({Glu-CO-γGlu-Ahx}-EEEYK(DOTA)-NH2; configuration not given here),Ki,GCP-II,< 0.3 nM
"NC(=O)C(CCCCNC(=S)Nc1ccc(CC2CN(CC(=O)O)CCN(CC(=O)O)CCN2CC(=O)O)cc1)NC(=O)C(Cc1ccc(O)cc1)NC(=O)C(CCC(=O)O)NC(=O)C(CCC(=O)O)NC(=O)C(CCC(=O)O)NC(=O)CCCCCNC(=O)CCC(NC(=O)NC(CCC(=O)O)C(=O)O)C(=O)O (centres unmarked) (68Ga complex, metal not drawn) [compound in Figure 7] ({Glu-CO-γGlu-Ahx}-EEEYK(X1)-NH2; configuration not given here)",stability on radio-HPLC after Ga-68 labeling with radioprotectant,[2]; aqueous sodium acetate buffer with ascorbic acid,reasonable stability with minimal degradation
same,degradation on radio-HPLC after Ga-68 labeling without radioprotectant,[2]; no radioprotectant,multiple peaks in radio-HPLC
same,radiolysis on radio-HPLC two hours after radiolabeling,[2]; in the presence of ascorbic acid,some radiolysis
O=C([O-])CN(CCN(CC(=O)[O-])Cc1cc(CCC(=O)NCCCCCC(=O)NCCCC[C@H](NC(=O)N[C@@H](CCC(=O)O)C(=O)O)C(=O)O)ccc1[O-])Cc1cc(CCC(=O)O)ccc1[O-].[68Ga+3].[OH3+] [[^68Ga]Ga-PSMA-11],"course of activity in salivary glands and kidneys, dynamic micro-PET",[3],gradually increasing
same,"Biodistribution, Blood",LNCaP cell line; LNCaP tumor model,0.31%ID/gram of tissue
same,"Biodistribution, Kidney",LNCaP cell line; LNCaP tumor model,182.0 ± 33.5 %ID/gram of tissue
same,"Biodistribution, Liver",LNCaP cell line; LNCaP tumor model,0.44%ID/gram of tissue
same,"Biodistribution, Muscle",LNCaP cell line; LNCaP tumor model,0.54%ID/gram of tissue
same,"Biodistribution, Salivary gland",LNCaP cell line; LNCaP tumor model,10.00 ± 2.52 %ID/gram of tissue
same,"Biodistribution, Spleen",LNCaP cell line; LNCaP tumor model,22.20%ID/gram of tissue
same,"Biodistribution, Kidney",LNCaP cell line; [6],182.00%ID/gram of tissue
same,"Biodistribution, Salivary gland",LNCaP cell line; [6],10.00%ID/gram of tissue
same,"Biodistribution, Tumor",LNCaP cell line; LNCaP tumor,8.67%ID/gram of tissue
NC(=O)C(CCCCNC(=O)CN1CCN(CC(=O)O)CCN(CC(=O)O)CCN(CC(=O)O)CC1)NC(=O)C(Cc1ccc(O)cc1)NC(=O)C(CCC(=O)O)NC(=O)C(CCC(=O)O)NC(=O)C(CCC(=O)O)NC(=O)CCCCCNC(=O)CCC(NC(=O)NC(CCC(=O)O)C(=O)O)C(=O)O.[68Ga] (centres unmarked) [[^68Ga]Ga-JB-1498] ({Glu-CO-γGlu-Ahx}-EEEYK(DOTA)-NH2; configuration not given here),"Biodistribution, Blood",[4]; N=3,0.39%ID/gram of tissue
same,"Biodistribution, Combined Salivary gland",[4]; N=3,0.39%ID/gram of tissue
same,"Biodistribution, Kidney",[4]; N=3,10.12%ID/gram of tissue
same,"Biodistribution, Liver",[4]; N=3,0.68%ID/gram of tissue
same,"Biodistribution, Lung",[4]; N=3,0.66%ID/gram of tissue
same,"Biodistribution, Spleen",[4]; N=3,2.34%ID/gram of tissue
same,"Biodistribution, parotid (Left)",[4]; N=3,0.36%ID/gram of tissue
same,"Biodistribution, submandibular (Left)",[4]; N=3,0.42%ID/gram of tissue
same,"Biodistribution, Combined Salivary gland",[4]; [7],0.39 ± 0.24 %ID/gram of tissue
same,"Biodistribution, Kidney",[4]; [7],10.12 ± 1.73 %ID/gram of tissue
same,salivary gland (SG) and background activity on micro-PET compared to [68Ga]Ga-PSMA-11,"[3]; 1 h post injection, same SUV grayscale",very little
same,tracer excretion on micro-PET,"[3]; 1 h post injection, most of injected tracer in the urinary bladder",rapid tracer excretion via the kidneys
same,salivary gland and kidney uptake on micro-PET images compared to [68Ga]Ga-PSMA-11,"[3]; 1 h post-injection, tail vein, non-tumor bearing NSG mice",much lower
same,"course of activity in salivary glands and kidneys, dynamic micro-PET",[3],gradually decreasing
same,"Biodistribution, Tumor",[5],12.09%ID/gram of tissue and 10.49%ID/gram of tissue
same,"Biodistribution, Tumor",[5]; listed as [^68Ga]Ga-JB1498,12.09 ± 1.28 %ID/gram of tissue
same,"Biodistribution, Blood",[5]; PSMA+ tumor-bearing NSG mice,0.22%ID/gram of tissue
same,"Biodistribution, Bone",[5]; PSMA+ tumor-bearing NSG mice,0.11%ID/gram of tissue and 0.10%ID/gram of tissue
same,"Biodistribution, Heart",[5]; PSMA+ tumor-bearing NSG mice,0.12%ID/gram of tissue and 0.11%ID/gram of tissue
same,"Biodistribution, Liver",[5]; PSMA+ tumor-bearing NSG mice,0.20%ID/gram of tissue and 0.18%ID/gram of tissue
same,"Biodistribution, Lung",[5]; PSMA+ tumor-bearing NSG mice,0.24%ID/gram of tissue and 0.21%ID/gram of tissue
same,"Biodistribution, Muscle",[5]; PSMA+ tumor-bearing NSG mice,0.22%ID/gram of tissue and 0.19%ID/gram of tissue
same,"Biodistribution, Salivary gland",[5]; PSMA+ tumor-bearing NSG mice,0.13 ± 0.01 %ID/gram of tissue and 0.13%ID/gram of tissue and 0.11%ID/gram of tissue
same,"Biodistribution, Spleen","[5]; PSMA+ tumor-bearing NSG mice, 2 splenic samples",0.31%ID/gram of tissue and 0.27%ID/gram of tissue
same,"Biodistribution, Liver","[5]; PSMA+ tumor-bearing NSG mice, listed as [^68Ga]Ga-JB1498",0.20 ± 0.09 %ID/gram of tissue
same,"Biodistribution, Kidney","[5]; PSMA+ tumor-bearing NSG mice, single sample of left kidney",12.98%ID/gram of tissue
same,degradation on radio-HPLC after Ga-68 labeling without radioprotectant,[2]; no radioprotectant,no significant degradation
same,radiolysis on radio-HPLC 2.5 hours after synthesis,"[2]; no radioprotectant, compared to trace immediately after radiolabeling",no significant radiolysis
